Results as given in patent publication US6241963A, “Dopamine and serotonin transporter ligands and imaging agents” (priority 1996, dated 2001).
Where “and” joins values, the source holds several entries; their conditions need not be identical. Equal values may be shown once. Read-outs that look alike come from different tables or passages of the source.

Legend:
[1] = Partition coefficient between 1-octanol (n-octanol) and buffer; type: physicochemical; details: for Partition coefficient (P.C.), 1-octanol/pH 7.0 buffer: 1-octanol/pH 7.0 phosphate buffer
Description: (§1) Partition coefficients were measured by mixing each Tc-99m compound with 3 g each of 1-octanol and buffer (pH 7.0 or 7.4, 0.1 M phosphate) in a test tube. The test tube was vortexed for 3 minutes at room temperature, then centrifuged for 5 minutes. Two weighed samples (0.5 g each) from the 1-octanol and buffer layers were counted in a well counter. The partition coefficient was determined by calculating the ratio of cpm/g of octanol to that of buffer. Samples from the octanol layer were repartitioned until consistent partition coefficient values were obtained. The measurement was repeated 3 times.
as §1, with “The partition coefficient was measured” for “Partition coefficients were measured”, “mixing the” for “mixing each”, “3 min” for “3 minutes”

dopamine transporters [2] = target: T1, dopamine transporters (Rattus norvegicus, UniProt P23977); type: in vivo, Male Sprague-Dawley rats; details: rats, iv
T1 sequence (P23977 whole entry): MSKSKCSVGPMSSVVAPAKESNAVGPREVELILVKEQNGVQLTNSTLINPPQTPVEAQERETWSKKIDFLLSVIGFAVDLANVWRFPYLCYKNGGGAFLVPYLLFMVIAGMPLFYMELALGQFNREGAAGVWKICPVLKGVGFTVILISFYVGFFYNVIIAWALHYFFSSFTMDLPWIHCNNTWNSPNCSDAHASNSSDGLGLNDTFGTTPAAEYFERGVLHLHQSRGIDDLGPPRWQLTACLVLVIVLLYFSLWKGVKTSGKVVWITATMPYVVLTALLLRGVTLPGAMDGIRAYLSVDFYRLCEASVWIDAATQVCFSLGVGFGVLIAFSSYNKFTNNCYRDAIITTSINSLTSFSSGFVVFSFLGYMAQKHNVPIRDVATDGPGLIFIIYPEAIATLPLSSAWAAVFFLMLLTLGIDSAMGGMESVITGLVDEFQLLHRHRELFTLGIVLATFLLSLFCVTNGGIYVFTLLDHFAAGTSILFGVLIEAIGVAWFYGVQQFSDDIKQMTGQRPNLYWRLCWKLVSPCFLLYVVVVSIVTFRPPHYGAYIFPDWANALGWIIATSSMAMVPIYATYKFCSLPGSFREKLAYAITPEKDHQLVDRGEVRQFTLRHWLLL
Description: For dopamine transporter imaging agents, the target area of the brain is the striatum, where dopamine transporters are highly concentrated. The cerebellum region is suitable for use as the background region, because it has no dopamine transporters. The specific uptake is measured by the ratio of % dose/gram of striatum divided by % dose/gram of cerebellum (ST/CB ratio)--the higher the value, the better the specific uptake, and the more promising as a dopamine transporter imaging agent.
(§2) Regional brain distribution in rats was obtained after an injection of 1.19a, 1.19b, 1.20a, 1.20b or 1.21. Samples from different brain regions (cortex, striatum, hippocampus, and cerebellum) were dissected, weighed and counted, and the percentage dose per gram of sample was calculated by comparing the sample counts with the count of the diluted initial dose. The uptake ratio of each region was obtained by dividing the percentage dose per gram of that region by that of the cerebellum. For blocking studies, rats were injected with either β-CIT or haloperidol (iv, 1 mg/Kg) 5 min prior to injection of 1.19a. The rats were dissected and brain tissue samples were counted as described above. The specific uptake of the compound was expressed as ratio of ST/CB (% dose/g of striatum divided by the same of cerebellum).
(§3) The major criteria for determining the potential usefulness of in vivo dopamine transporter imaging agents are based on an animal biodistribution study. In this case, rats were used as an animal model. After an intravenous injection of the Tc-99m labeled compounds, the values of initial brain uptake (% dose/whole organ) at 2 minutes post intravenous injection are used to measure the ability to penetrate the intact blood-brain barrier. Compounds displaying higher brain uptake are the better agents (minimum requirement >0.1% dose in brain). The second criteria is the specific uptake in the striatum region of the brain, where dopamine transporters are located. The uptake value (% dose/gram) of the striatum (ST) is divided by the background area, cerebellum (CB; essentially devoid of dopamine transporter); the ratio of ST/CB is an indicator for specific uptake (minimum requirement for ST/CB >1.5). Five structurally similar tropane derivatives were examined in this biological study. (Tables 1.1 to 1.4).
as §2, with “3.24 to 3.34.” for “1.19a, 1.19b, 1.20a, 1.20b or 1.21.”, “3.25.” for “1.19a.”, “above.” for “above. The specific uptake of the compound was expressed as ratio of ST/CB (% dose/g of striatum divided by the same of cerebellum).”

[3] = type: in vivo, Male Sprague-Dawley rats
Description: Male Sprague-Dawley rats (225-300 g) allowed free access to food and water were used for in vivo biodistribution studies. Kung, 1984, supra; Kung, 1985, supra. While under ether anesthesia, 0.2 mL of a saline solution containing 1.19a, 1.19b, 1.20a, 1.20b or 1.21 (50-100 μCi) was injected directly into the femoral vein of rats, and the rats were sacrificed by cardiac excision at various time points post-injection. The organs of interest were removed and weighed, and the radioactivity was counted with an automatic gamma counter (Packard 5000). The percentage dose per organ was calculated by a comparison of the tissue counts to suitably diluted aliquots of the injected material. Total activities of blood and muscle were calculated under the assumption that they were 7% and 40% of the total body weight, respectively.
as §3
Male Sprague-Dawley rats (225-300 g) that were allowed free access to food and water were used for in vivo biodistribution studies. (Kung, 1984, supra; Kung, 1985, supra). While under halothane anesthesia, 0.2 mL of a saline solution containing 3.24 to 3.34 ([…]) was injected directly into the femoral vein of rats, and they were sacrificed by cardiac excision at various time points post-injection. The organs of interest were removed and weighed, and the radioactivity was counted with an automatic gamma counter (Packard 5000). The percentage dose per organ was calculated by a comparison of the tissue counts to suitably diluted aliquots of the injected material. Total activities of blood and muscle were calculated under the assumption that they were 7% and 40% of the total body weight, respectively.

[4] = target: T2, rat striatal homogenates (dopamine transporter) (Rattus norvegicus, UniProt P23977); assay: In vitro binding with rat striatal homogenates using [^125 I]IPT as the ligand; details: for Ki: [^125 I]IPT as ligand
T2 construct: from tissue; host or cells: rat striatum homogenate
T2 sequence (P23977 whole entry): as above

dopamine transporters [5] = target: T1, dopamine transporters; assay: In vitro autoradiography of rat brain sections; type: binding, Male Sprague-Dawley rats; details: rat brain coronal sections
Description: Male Sprague-Dawley rats ([…]) were sacrificed by decapitation, and the brains were removed, placed in OTC embedding medium (Miles Laboratory, Elkhart, Ind.) frozen in powdered dry ice. After equilibration to -15° C., 20 μm coronal sections were sliced on a cryostat (Hacker Instruments, Fairfield, N.J.), thaw mounted onto gelatin-coated slides, desiccated at 4° C. for 3 hours and kept at -70° C. until use. Prior to the experiment, the slides were dried at room temperature and preincubated for 30 minutes in buffer containing 50 mM Tris-HCl (pH 7.4, 120 mM NaCl). The slides were then incubated for 2 hours in preincubation buffer and the [^99m Tc] compound 3.25 (385,000 cpm/200 μL) in a coplan jar, washed for 1 hour in cold Tris buffer, with one change of buffer, dipped in ice-cold water to remove buffer salts and allowed to dry at room temperature. Nonspecific binding was determined in the presence of 1 μM IPT. These slides were simultaneously exposed to DuPont x-ray film in an autoradiographic cassette for 18 hours. The exposed film was developed with a Kodak automatic film processor.

dopamine transporters [6] = details: cited from earlier work

| Molecule | Partition coefficient (P.C.), 1-octanol/pH 7.0 buffer [1] | ST/CB ratio, 60 min (dopamine transporters [2]) | Brain uptake, 2 min ([3]; rats, iv, 2 min) [% dose/organ] | Brain uptake, 60 min ([3]; rats, iv) [% dose/organ] | Ki [4] [nM] | other results |
| --- | --- | --- | --- | --- | --- | --- |
| CN1[C@H]2CC[C@@H]1[C@@H](C(=O)[N+]13CC[S][99Tc-]14(=[O])[S]CC[N]4CC3)[C@@H](c1ccc(Cl)cc1)C2 (stereo partly shown) [Compound 1.19b] | 230 | 2.78 and 2.78 ± 0.32 | 0.39 ± 0.12 | 0.11 ± 0.02 | – | ST/CB ratio, 30 min (dopamine transporters [2]): 2.78; Brain uptake, 30 min ([3]; rats, iv): 0.21 ± 0.03 % dose/organ |
| CN1[C@H]2CC[C@@H]1[C@@H](C(=O)[N+]13CC[S][99Tc-]14(=[O])[S]CC[N]4CC3)[C@@H](c1ccc(F)cc1)C2 (stereo partly shown) [Compound 1.20b] | 99-1818 and 104 | 1.92 and 1.92 ± 0.28 | 0.31 ± 0.09 | 0.07 ± 0.010 | – | – |
| CN1[C@H]2CC[C@@H]1[C@@H](CN(CCS)CCNCCS)[C@@H](c1ccc(Cl)cc1)C2 [Compound 1.16a] | – | – | – | – | 7 | – |
| COC(=O)[C@H]1[C@@H](c2ccc(Cl)cc2)C[C@@H]2CC[C@H]1N2CC[S][Re-]12(=[O])[S]CC[N+]1(C)CC[S]2 (stereo partly shown) [Compound 3.23] | – | – | – | – | 0.3 | – |
| CN1[C@H]2CC[C@@H]1[C@@H](C[N+]13CC[S][99Tc-]14(=[O])[S]CC[N]4C(=O)C3)[C@@H](c1ccc(Cl)cc1)C2 (stereo partly shown) [Compound 1.21] | 1818 | 1.17 ± 0.010 | 0.11 ± 0.02 | – | – | Partition coefficient / lipophilicity, comparison in words [1]: almost tenfold higher partition coefficient; Brain uptake and specific striatal uptake, in words (dopamine transporters [2]): lowest brain uptake; ST/CB ratio, 30 min (dopamine transporters [2]): 1.17; ST/CB ratio, 60 min (dopamine transporters [2]; listed as 21): 1.17; Brain uptake, 60 min, footnote c ([3]; data from rats sacrificed at 30 minutes): 0.07 ± 0.014 % dose/organ; Brain uptake lower than 1.19a and 1.19b ([3]; rats, iv, 2 min): at least 300%; Brain uptake, 30 min ([3]; rats, iv): 0.070 ± 0.014 % dose/organ |
| CN1[C@H]2CC[C@@H]1[C@@H](C[N+]13CC[S][99Tc-]14(=[O])[S]CC[N]4CC3)[C@@H](c1ccc(F)cc1)C2 (stereo partly shown) [Compound 1.20a] | 99-1818 and 99 | 2.18 and 2.18 ± 0.32 | 0.37 ± 0.09 | 0.098 ± 0.014 | – | – |
| COC(=O)[C@H]1[C@@H](c2ccc(Cl)cc2)C[C@@H]2CC[C@H]1N2CC=CI [IPT, N-(3-iodopropen-2-yl)-2β-carbomethoxy-3β-(4-chlorophenyl)tropane, reference compound] | – | – | – | – | – | Autoradiographic regional labeling (dopamine transporters [5]): almost identical regional labeling pattern; Kd ([4]; data not shown, read-out: Kd of the radioligand [^125 I]IPT): 0.2 nM; Time for reaching optimal uptake ratio / equilibrium (dopamine transporters [6]; basal ganglia versus frontal cortex): less than one hour; Literature binding / localization / biodistribution, in words (dopamine transporters [6]; in vivo): much higher binding affinity and selectivity to dopamine reuptake sites |
| 2b-{oxo[N,N'-bis-(2'-mercaptoethyl)-ethylenediaminato)]rhenium (V)-methylamino}-3b-(4-chlorophenyl)tropane [Compound 1.22] | – | – | – | – | 14 | – |
